Measurements as given in ChEMBL document CHEMBL5291721, “A preclinical secondary pharmacology resource illuminates target-adverse drug reaction associations of marketed drugs” (Nat Commun, 2023).

Key:
[1] = biological target: 3',5'-cyclic-AMP phosphodiesterase 4D (Homo sapiens, UniProt Q08499); format: functional
[2] = biological target: T1, Amine oxidase [flavin-containing] A (Homo sapiens, UniProt P21397); format: functional
T1 sequence (P21397 whole entry): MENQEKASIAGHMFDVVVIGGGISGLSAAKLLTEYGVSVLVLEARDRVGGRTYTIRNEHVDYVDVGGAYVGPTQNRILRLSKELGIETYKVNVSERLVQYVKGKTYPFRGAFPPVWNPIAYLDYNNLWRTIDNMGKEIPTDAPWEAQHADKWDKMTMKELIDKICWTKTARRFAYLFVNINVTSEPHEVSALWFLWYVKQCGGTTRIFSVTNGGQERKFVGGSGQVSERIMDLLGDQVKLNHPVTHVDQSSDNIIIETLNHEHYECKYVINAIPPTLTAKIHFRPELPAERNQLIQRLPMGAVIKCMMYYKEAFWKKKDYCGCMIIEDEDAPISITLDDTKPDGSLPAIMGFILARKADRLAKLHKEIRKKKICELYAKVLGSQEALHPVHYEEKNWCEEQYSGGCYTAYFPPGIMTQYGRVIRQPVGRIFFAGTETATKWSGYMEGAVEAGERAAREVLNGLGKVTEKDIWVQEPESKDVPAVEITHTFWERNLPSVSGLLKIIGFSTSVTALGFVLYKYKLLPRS

Vasopressin V1a receptor = Vasopressin V1a receptor (Homo sapiens, UniProt P37288)
Chain of Vasopressin V1a receptor (P37288 whole entry): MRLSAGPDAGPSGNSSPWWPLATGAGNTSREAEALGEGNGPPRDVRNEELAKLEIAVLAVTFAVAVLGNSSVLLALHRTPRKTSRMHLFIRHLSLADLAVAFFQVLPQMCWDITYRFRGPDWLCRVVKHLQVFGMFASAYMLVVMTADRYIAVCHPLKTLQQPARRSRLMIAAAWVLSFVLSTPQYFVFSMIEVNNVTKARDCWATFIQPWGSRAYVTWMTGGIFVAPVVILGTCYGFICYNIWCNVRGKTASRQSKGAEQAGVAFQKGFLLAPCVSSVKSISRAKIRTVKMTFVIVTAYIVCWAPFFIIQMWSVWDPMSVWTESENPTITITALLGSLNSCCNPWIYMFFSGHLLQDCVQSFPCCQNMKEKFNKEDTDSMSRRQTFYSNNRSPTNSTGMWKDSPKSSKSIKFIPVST

Estrogen receptor = biological target: T2, Estrogen receptor (Homo sapiens, UniProt P03372)
T2 sequence (P03372 whole entry): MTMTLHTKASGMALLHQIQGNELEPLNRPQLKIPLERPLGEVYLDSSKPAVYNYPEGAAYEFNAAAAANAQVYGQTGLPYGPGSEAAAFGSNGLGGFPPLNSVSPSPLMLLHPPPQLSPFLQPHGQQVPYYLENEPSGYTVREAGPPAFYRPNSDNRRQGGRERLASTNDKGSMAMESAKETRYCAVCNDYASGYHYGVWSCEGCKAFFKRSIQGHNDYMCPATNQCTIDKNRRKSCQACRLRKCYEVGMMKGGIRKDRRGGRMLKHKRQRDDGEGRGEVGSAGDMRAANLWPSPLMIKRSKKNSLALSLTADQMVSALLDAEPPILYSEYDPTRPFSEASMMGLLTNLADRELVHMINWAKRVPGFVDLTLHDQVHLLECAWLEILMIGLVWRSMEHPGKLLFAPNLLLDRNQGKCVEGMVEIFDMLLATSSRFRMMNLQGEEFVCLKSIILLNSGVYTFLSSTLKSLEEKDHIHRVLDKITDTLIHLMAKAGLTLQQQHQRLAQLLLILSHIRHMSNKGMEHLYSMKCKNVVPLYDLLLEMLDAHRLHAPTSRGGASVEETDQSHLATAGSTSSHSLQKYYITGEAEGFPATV

[3] = biological target: T3, Equilibrative nucleoside transporter 1 (Homo sapiens, UniProt Q99808)
T3 sequence (Q99808 whole entry): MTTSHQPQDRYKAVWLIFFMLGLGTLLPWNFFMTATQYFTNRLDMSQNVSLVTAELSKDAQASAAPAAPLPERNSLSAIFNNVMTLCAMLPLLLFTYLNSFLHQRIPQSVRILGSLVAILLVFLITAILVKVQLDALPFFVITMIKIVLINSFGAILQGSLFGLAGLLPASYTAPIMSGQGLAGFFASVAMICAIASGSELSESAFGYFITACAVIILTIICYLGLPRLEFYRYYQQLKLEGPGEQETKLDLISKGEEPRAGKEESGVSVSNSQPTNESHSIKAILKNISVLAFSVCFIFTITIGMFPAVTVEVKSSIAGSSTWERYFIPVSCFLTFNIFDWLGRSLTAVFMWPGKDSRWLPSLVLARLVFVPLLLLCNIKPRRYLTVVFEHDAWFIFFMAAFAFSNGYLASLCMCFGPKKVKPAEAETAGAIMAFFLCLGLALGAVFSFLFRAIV

[4] = biological target: Growth hormone secretagogue receptor type 1 (Homo sapiens, UniProt Q92847)
Chain of Growth hormone secretagogue receptor type 1 (Q92847 whole entry): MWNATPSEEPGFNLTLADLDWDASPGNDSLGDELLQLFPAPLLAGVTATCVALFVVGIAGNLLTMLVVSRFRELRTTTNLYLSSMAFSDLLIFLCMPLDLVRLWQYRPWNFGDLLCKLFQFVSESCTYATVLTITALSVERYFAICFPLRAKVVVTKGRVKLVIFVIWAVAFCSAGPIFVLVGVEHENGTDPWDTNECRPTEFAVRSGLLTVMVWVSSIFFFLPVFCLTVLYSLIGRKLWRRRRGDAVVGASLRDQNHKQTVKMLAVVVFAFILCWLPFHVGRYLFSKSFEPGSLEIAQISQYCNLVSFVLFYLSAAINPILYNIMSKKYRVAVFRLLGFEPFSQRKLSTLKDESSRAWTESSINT

Vasopressin V2 receptor = Vasopressin V2 receptor (Homo sapiens, UniProt P30518)
Chain of Vasopressin V2 receptor (P30518 whole entry): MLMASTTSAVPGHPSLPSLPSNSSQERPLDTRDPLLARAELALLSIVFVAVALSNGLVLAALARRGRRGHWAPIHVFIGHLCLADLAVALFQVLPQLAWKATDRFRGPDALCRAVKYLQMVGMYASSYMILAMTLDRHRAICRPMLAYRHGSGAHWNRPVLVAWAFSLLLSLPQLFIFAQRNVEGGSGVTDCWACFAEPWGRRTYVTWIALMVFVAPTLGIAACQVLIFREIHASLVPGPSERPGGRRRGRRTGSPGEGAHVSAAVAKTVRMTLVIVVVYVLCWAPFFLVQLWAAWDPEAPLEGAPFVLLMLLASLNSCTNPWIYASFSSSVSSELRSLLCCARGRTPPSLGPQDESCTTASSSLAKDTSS

[5] = biological target: T4, Muscarinic acetylcholine receptor M2 (Homo sapiens, UniProt P08172); format: functional, cell-based
T4 sequence (P08172 whole entry): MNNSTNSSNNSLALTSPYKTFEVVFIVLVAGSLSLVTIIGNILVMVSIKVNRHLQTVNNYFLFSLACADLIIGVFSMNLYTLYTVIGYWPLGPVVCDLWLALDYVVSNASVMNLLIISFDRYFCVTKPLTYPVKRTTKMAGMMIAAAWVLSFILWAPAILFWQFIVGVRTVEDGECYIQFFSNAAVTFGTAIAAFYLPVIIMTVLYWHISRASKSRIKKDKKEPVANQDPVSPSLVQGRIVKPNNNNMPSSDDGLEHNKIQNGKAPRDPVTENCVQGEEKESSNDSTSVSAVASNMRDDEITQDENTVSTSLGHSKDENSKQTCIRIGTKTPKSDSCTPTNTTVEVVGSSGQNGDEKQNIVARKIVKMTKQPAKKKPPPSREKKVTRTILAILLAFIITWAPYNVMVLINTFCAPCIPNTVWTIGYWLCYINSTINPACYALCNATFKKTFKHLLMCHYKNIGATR

[6] = biological target: Vascular endothelial growth factor receptor 2 (Homo sapiens, UniProt P35968); format: functional
Chain of Vascular endothelial growth factor receptor 2 (P35968 whole entry): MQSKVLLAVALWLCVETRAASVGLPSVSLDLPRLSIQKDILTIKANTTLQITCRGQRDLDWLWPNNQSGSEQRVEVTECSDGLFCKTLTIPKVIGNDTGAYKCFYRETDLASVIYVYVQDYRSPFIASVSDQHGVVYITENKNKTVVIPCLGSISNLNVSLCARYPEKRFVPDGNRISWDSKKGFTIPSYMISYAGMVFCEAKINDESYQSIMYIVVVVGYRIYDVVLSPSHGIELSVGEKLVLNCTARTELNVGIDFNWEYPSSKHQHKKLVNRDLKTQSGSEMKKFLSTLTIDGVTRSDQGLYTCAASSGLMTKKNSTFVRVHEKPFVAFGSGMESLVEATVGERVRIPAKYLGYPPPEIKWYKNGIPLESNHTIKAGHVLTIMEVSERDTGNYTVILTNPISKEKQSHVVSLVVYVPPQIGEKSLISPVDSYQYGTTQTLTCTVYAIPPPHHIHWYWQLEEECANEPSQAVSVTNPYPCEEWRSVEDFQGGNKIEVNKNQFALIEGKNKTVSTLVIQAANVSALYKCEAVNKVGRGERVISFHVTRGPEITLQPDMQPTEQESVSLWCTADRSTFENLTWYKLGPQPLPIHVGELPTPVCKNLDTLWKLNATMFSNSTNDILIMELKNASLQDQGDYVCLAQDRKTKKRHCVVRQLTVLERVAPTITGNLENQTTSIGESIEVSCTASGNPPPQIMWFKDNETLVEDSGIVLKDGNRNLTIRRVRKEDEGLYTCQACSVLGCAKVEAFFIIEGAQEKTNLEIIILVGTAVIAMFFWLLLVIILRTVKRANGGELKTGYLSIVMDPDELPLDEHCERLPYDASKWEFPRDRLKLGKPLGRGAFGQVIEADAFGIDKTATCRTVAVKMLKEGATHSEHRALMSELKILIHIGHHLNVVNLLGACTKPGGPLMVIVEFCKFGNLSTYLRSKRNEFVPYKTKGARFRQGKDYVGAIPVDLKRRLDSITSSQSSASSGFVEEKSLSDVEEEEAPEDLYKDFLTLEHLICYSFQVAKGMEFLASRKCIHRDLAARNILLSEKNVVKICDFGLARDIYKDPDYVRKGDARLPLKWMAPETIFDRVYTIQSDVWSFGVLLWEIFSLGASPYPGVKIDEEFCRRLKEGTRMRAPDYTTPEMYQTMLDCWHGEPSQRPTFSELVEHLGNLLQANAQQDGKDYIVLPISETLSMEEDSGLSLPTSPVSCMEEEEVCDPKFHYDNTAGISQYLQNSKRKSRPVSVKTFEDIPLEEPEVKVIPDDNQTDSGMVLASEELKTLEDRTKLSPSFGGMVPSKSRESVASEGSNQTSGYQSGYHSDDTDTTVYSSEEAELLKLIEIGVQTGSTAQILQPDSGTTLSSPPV

[7] = biological target: T5, Alpha-1A adrenergic receptor (Homo sapiens, UniProt P35348); format: functional, cell-based
T5 sequence (P35348 whole entry): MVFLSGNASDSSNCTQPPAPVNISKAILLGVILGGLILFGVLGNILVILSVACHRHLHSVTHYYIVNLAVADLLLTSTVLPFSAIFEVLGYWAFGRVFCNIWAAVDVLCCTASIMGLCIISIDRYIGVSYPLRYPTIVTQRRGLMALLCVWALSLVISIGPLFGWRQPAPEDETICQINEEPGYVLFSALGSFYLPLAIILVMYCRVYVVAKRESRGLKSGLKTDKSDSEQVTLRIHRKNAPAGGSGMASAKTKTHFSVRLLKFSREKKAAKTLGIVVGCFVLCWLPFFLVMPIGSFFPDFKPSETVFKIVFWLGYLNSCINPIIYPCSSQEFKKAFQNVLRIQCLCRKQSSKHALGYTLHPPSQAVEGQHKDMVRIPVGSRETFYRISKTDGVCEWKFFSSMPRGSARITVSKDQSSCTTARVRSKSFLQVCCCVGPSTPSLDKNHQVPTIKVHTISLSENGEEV
Further: assay procedure not described here.

Chain of 3',5'-cyclic-AMP phosphodiesterase 4D (Q08499 whole entry): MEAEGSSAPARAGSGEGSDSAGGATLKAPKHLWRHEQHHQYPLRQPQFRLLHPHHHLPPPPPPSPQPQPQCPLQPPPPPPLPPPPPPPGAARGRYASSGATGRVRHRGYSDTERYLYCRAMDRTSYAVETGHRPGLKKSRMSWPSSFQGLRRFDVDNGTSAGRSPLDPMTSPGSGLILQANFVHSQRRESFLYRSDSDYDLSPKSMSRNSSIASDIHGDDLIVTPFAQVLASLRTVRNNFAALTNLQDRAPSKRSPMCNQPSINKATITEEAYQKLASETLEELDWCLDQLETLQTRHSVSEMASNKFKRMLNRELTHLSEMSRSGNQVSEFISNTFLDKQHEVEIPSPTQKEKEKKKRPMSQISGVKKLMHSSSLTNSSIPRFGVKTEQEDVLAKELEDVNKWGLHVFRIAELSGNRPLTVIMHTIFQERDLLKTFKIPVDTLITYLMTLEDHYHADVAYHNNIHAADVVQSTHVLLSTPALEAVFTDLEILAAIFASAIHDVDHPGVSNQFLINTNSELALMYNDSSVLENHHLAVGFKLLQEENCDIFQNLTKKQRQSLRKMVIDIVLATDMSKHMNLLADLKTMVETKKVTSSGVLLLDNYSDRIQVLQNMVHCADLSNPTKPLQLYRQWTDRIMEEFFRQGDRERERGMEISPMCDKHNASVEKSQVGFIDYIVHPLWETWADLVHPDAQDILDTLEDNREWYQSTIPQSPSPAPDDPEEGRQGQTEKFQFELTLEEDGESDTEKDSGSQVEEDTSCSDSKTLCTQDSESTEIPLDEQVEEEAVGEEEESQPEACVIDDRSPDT

Row | Structure (SMILES) | AC50 [1] | AC50 [2] | AC50 (Vasopressin V1a receptor) | AC50 (Estrogen receptor) | AC50 [3] | AC50 [4] | AC50 (Vasopressin V2 receptor) | AC50 [5] | AC50 [6] | AC50 [7]
1 | CCCc1nc2c(C)cc(-c3nc4ccccc4n3C)cc2n1Cc1ccc(-c2ccccc2C(=O)O)cc1 | 7.1 µM | > 30 µM | > 30 µM | > 30 µM | > 30 µM | > 30 µM | > 30 µM | > 30 µM | > 10 µM | 
2 | O=C(O)c1ccccc1 [BENZOIC ACID] |  |  |  | > 30 µM |  |  |  |  | > 30 µM | > 30 µM
3 | Nc1c(CC(=O)O)cccc1C(=O)c1ccc(Br)cc1 [BROMFENAC] |  |  |  | > 30 µM |  |  |  |  |  | > 30 µM
4 | CCCNC(=O)NS(=O)(=O)c1ccc(Cl)cc1 [CHLORPROPAMIDE] | > 30 µM | > 10 µM | > 30 µM |  | > 30 µM | > 30 µM | > 30 µM | > 10 µM |  | 
5 | Cc1cc(C2CCCCC2)n(O)c(=O)c1 [CICLOPIROX] | > 30 µM | > 30 µM |  | > 30 µM |  |  |  | > 30 µM | > 30 µM | 
6 | Cc1nc(Nc2ncc(C(=O)Nc3c(C)cccc3Cl)s2)cc(N2CCN(CCO)CC2)n1 [DASATINIB] | 28 µM | > 30 µM | > 30 µM |  | > 30 µM | > 30 µM | > 30 µM | > 30 µM |  | 
7 | O=C(O)Cc1ccccc1Nc1c(Cl)cccc1Cl [DICLOFENAC] | > 30 µM | > 10 µM | > 30 µM |  | > 30 µM | > 30 µM | > 30 µM | > 10 µM | > 3 µM | > 3 µM
8 | CC(C(=O)O)c1cccc(Oc2ccccc2)c1 (stereo unspecified) [FENOPROFEN] |  |  |  |  |  |  |  |  | > 30 µM | > 30 µM
9 | CC1(C)O[C@@H]2C[C@H]3[C@@H]4C[C@H](F)C5=CC(=O)C=C[C@]5(C)[C@@]4(F)[C@@H](O)C[C@]3(C)[C@]2(C(=O)CO)O1 [FLUOCINOLONE ACETONIDE] |  |  |  | > 30 µM |  |  |  |  | > 30 µM | > 30 µM
10 | O=C(O)P(=O)(O)O [FOSCARNET] |  |  |  |  |  |  |  |  | > 30 µM | > 30 µM
11 | COc1ccccc1OC1(C)OC(=O)c2ccccc2O1 (stereo unspecified) [GUAIMESAL] |  |  | > 30 µM | > 30 µM | > 30 µM | > 30 µM | > 30 µM |  |  | > 30 µM
12 | N=C(N)N/N=C/c1c(Cl)cccc1Cl [GUANABENZ] |  |  |  | > 30 µM |  |  |  |  | > 30 µM | 
13 | CCCCCCCN(CC)CCCC(O)c1ccc(NS(C)(=O)=O)cc1 (stereo unspecified) [IBUTILIDE] | > 30 µM | > 30 µM | > 30 µM |  | > 30 µM | > 30 µM | > 30 µM | > 30 µM |  | 
14 | COc1cc(C(C)=O)ccc1OCCCN1CCC(c2noc3cc(F)ccc23)CC1 [ILOPERIDONE] | > 30 µM | > 30 µM | > 30 µM | > 30 µM | > 30 µM | > 30 µM |  | > 30 µM |  | 0.003 µM
15 | CC[C@H](C)C(=O)O[C@H]1C[C@@H](C)C=C2C=C[C@H](C)[C@H](CC[C@@H]3C[C@@H](O)CC(=O)O3)[C@H]21 [LOVASTATIN] | > 30 µM | > 10 µM | > 10 µM |  | > 30 µM | > 30 µM | > 30 µM | > 10 µM |  | 
16 | CC[C@@H](CO)NC(=O)[C@@H]1C=C2c3cccc4c3c(cn4C)C[C@H]2N(C)C1 [METHYSERGIDE] | > 30 µM | > 10 µM | > 30 µM |  | > 30 µM | > 30 µM | > 30 µM | > 30 µM |  | 
17 | CN1Cc2c(N)cccc2C(c2ccccc2)C1 (stereo unspecified) [NOMIFENSINE] | > 30 µM | > 30 µM | > 30 µM |  | > 30 µM | > 30 µM | > 30 µM | > 30 µM |  | 
18 | COc1ccc2[nH]c([S+]([O-])Cc3ncc(C)c(OC)c3C)nc2c1 (stereo unspecified) [OMEPRAZOLE] |  |  |  | > 30 µM |  |  |  |  | > 30 µM | > 30 µM
19 | CC(CN1c2ccccc2Sc2ccccc21)N(C)C (stereo unspecified) [PROMETHAZINE] | > 30 µM | > 10 µM | > 10 µM |  | > 30 µM | > 30 µM | > 30 µM | > 30 µM |  | 
20 | CCCc1cc(=O)[nH]c(=S)[nH]1 [PROPYLTHIOURACIL] | > 30 µM | > 10 µM | > 10 µM |  | > 10 µM | > 10 µM | > 10 µM | > 10 µM |  | 
21 | Cn1cc(C(=O)[C@@H]2CCc3nc[nH]c3C2)c2ccccc21 [RAMOSETRON] | > 30 µM | > 30 µM | > 30 µM |  | > 30 µM | > 30 µM | > 30 µM | > 30 µM |  | 
22 | CN(CCOc1ccc(CC2SC(=O)NC2=O)cc1)c1ccccn1 (stereo unspecified) [ROSIGLITAZONE] | 29 µM | 8 µM | > 30 µM |  | > 30 µM | > 30 µM | > 30 µM | > 30 µM |  | 
23 | C[N+](C)(C)CCOC(=O)CCC(=O)OCC[N+](C)(C)C [SUXAMETHONIUM] |  |  |  | > 30 µM |  |  |  |  | > 30 µM | 
24 | Cc1ccc(C(=O)c2ccc(CC(=O)O)n2C)cc1 [TOLMETIN] |  |  |  | > 30 µM |  |  |  |  | > 30 µM | > 30 µM
25 | CC(C)C[C@H](NC(=O)[C@@H](O)[C@H](N)Cc1ccccc1)C(=O)O [UBENIMEX] | > 30 µM | > 30 µM |  | > 30 µM | > 30 µM |  |  | > 30 µM |  | 
26 | CC(C)[C@H](N)C(=O)OCCOCn1cnc2c(=O)[nH]c(N)nc21 [VALACYCLOVIR] | > 30 µM | > 10 µM | > 10 µM |  | > 30 µM | > 30 µM | > 30 µM | > 10 µM |  | 
